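Growth conditions: 96-well plates. Treatment: test compound, 48 hours, 5 concentrations. Analysis: linear interpolation between bracketing concentrations; unreached endpoints set to highest concentration. The concentration for 50% growth inhibition is given as GI50.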 Calls of active or inactive are those of the source. Cut-off read from the data, not from the text of the source: active = GI50 up to about 1.1 µM and inactive = higher.
Experiments:
Test in all cases: NCI anticancer screen, dose series, 48 h
OVCAR-5 = test system: OVCAR-5
SW-620 = test system: SW-620
RPMI-8226 = test system: RPMI-8226
T47D = test system: T47D
CAKI-1 = test system: CAKI-1
MOLT-4 = test system: MOLT-4
HCT-116 = test system: HCT-116
UACC-62 = test system: UACC-62
UACC-257 = test system: UACC-257
DU-145 = test system: DU-145
NCI/ADR-RES = test system: NCI/ADR-RES
SK-OV-3 = test system: SK-OV-3
PC-3 = test system: PC-3
MDA-MB-231 = test system: MDA-MB-231
KM12 = test system: KM12
A498 = test system: A498
NCI-H460 = test system: NCI-H460
HCC 2998 = test system: HCC 2998
UO-31 = test system: UO-31
COLO 205 = test system: COLO 205
OVCAR-4 = test system: OVCAR-4
HT-29 = test system: HT-29
TK-10 = test system: TK-10
LOX IMVI = test system: LOX IMVI
CCRF-CEM = test system: CCRF-CEM
OVCAR-3 = test system: OVCAR-3
SK-MEL-5 = test system: SK-MEL-5
SF-295 = test system: SF-295
SR = test system: SR
786-0 = test system: 786-0
RXF 393 = test system: RXF 393
ACHN = test system: ACHN
M14 = test system: M14
OVCAR-8 = test system: OVCAR-8
SNB-19 = test system: SNB-19
U-251 = test system: U-251
K562 = test system: K562
NCI-H23 = test system: NCI-H23
HOP-92 = test system: HOP-92
IGROV-1 = test system: IGROV-1
MDA-MB-435 = test system: MDA-MB-435
HCT-15 = test system: HCT-15
HOP-62 = test system: HOP-62
NCI-H226 = test system: NCI-H226
SF-539 = test system: SF-539
SK-MEL-2 = test system: SK-MEL-2
HL-60 = test system: HL-60
A549 = test system: A549
Hs-578T = test system: Hs-578T
MCF7 = test system: MCF7
SNB-75 = test system: SNB-75
SN12C = test system: SN12C
SK-MEL-28 = test system: SK-MEL-28
NCI-H522 = test system: NCI-H522
MDA-N = test system: MDA-N
SF-268 = test system: SF-268
EKVX = test system: EKVX
Malme-3M = test system: Malme-3M

SMILES: C[C@@H](C(=O)O)c1ccc(-c2ccccc2)c(F)c1 [TARENFLURBIL]
- GI50 (OVCAR-5): > 100 µM (inactive)
- GI50 (SW-620): > 100 µM (inactive)
- GI50 (RPMI-8226): > 100 µM (inactive)
- GI50 (T47D): > 100 µM (inactive)
- GI50 (CAKI-1): > 100 µM (inactive)
- GI50 (MOLT-4): > 100 µM (inactive)
- GI50 (HCT-116): > 100 µM (inactive)
- GI50 (UACC-62): > 100 µM (inactive)
- GI50 (UACC-257): > 100 µM (inactive)
- GI50 (DU-145): > 100 µM (inactive)
- GI50 (NCI/ADR-RES): > 100 µM (inactive)
- GI50 (SK-OV-3): > 100 µM (inactive)
- GI50 (PC-3): > 100 µM (inactive)
- GI50 (MDA-MB-231): > 100 µM (inactive)
- GI50 (KM12): > 100 µM (inactive)
- GI50 (A498): > 100 µM (inactive)
- GI50 (NCI-H460): > 100 µM (inactive)
- GI50 (HCC 2998): > 100 µM (inactive)
- GI50 (UO-31): > 71.9 µM (inactive)
- GI50 (COLO 205): > 100 µM (inactive)
- GI50 (OVCAR-4): > 100 µM (inactive)
- GI50 (HT-29): > 100 µM (inactive)
- GI50 (TK-10): > 100 µM (inactive)
- GI50 (LOX IMVI): > 100 µM (inactive)
- GI50 (CCRF-CEM): > 100 µM (inactive)
- GI50 (OVCAR-3): > 100 µM (inactive)
- GI50 (SK-MEL-5): > 100 µM (inactive)
- GI50 (SF-295): > 100 µM (inactive)
- GI50 (SR): > 100 µM (inactive)
- GI50 (786-0): > 100 µM (inactive)
- GI50 (RXF 393): > 100 µM (inactive)
- GI50 (ACHN): > 100 µM (inactive)
- GI50 (M14): > 100 µM (inactive)
- GI50 (OVCAR-8): > 100 µM (inactive)
- GI50 (SNB-19): > 73.6 µM (inactive)
- GI50 (U-251): > 100 µM (inactive)
- GI50 (K562): > 100 µM (inactive)
- GI50 (NCI-H23): > 100 µM (inactive)
- GI50 (HOP-92): > 100 µM (inactive)
- GI50 (IGROV-1): > 100 µM (inactive)

SMILES: CC(C)Oc1c(O)c2c3c(oc(=O)n3C=CC2c2ccccc2F)c1OC(C)C (stereo unspecified)
- GI50 (OVCAR-5): 20 µM (inactive)
- GI50 (SW-620): 32.9 µM (inactive)
- GI50 (RPMI-8226): 17.3 µM (inactive)
- GI50 (MDA-MB-435): 26.3 µM (inactive)
- GI50 (CAKI-1): 38.5 µM (inactive)
- GI50 (HCT-15): 33 µM
- GI50 (MOLT-4): 18.7 µM (inactive)
- GI50 (HCT-116): 21.7 µM (inactive)
- GI50 (UACC-62): 21.1 µM (inactive)
- GI50 (HOP-62): 27.5 µM (inactive)
- GI50 (UACC-257): 28.6 µM (inactive)
- GI50 (DU-145): 63.8 µM (inactive)
- GI50 (NCI-H226): 32.6 µM (inactive)
- GI50 (SF-539): 22.5 µM (inactive)
- GI50 (NCI/ADR-RES): 34.4 µM (inactive)
- GI50 (SK-OV-3): > 100 µM (inactive)
- GI50 (PC-3): 13.5 µM (inactive)
- GI50 (MDA-MB-231): 27.7 µM (inactive)
- GI50 (KM12): 29.1 µM (inactive)
- GI50 (A498): 38.6 µM (inactive)
- GI50 (SK-MEL-2): 15.5 µM (inactive)
- GI50 (NCI-H460): 25 µM (inactive)
- GI50 (HL-60): 20.1 µM (inactive)
- GI50 (UO-31): 24.4 µM (inactive)
- GI50 (COLO 205): 18.7 µM (inactive)
- GI50 (OVCAR-4): 46 µM (inactive)
- GI50 (A549): 26.8 µM (inactive)
- GI50 (Hs-578T): 75.7 µM (inactive)
- GI50 (HT-29): 21.7 µM (inactive)
- GI50 (TK-10): 40.6 µM (inactive)
- GI50 (MCF7): 28.8 µM (inactive)
- GI50 (LOX IMVI): 17.5 µM (inactive)
- GI50 (CCRF-CEM): 24.8 µM (inactive)
- GI50 (OVCAR-3): 44.1 µM (inactive)
- GI50 (SNB-75): 20.7 µM (inactive)
- GI50 (SK-MEL-5): 18.4 µM (inactive)
- GI50 (SN12C): 38.4 µM (inactive)
- GI50 (SF-295): 25.6 µM (inactive)
- GI50 (SR): 16.7 µM (inactive)
- GI50 (786-0): 33.4 µM (inactive)
- GI50 (RXF 393): 21 µM (inactive)
- GI50 (SK-MEL-28): 53.8 µM (inactive)
- GI50 (NCI-H522): 33.8 µM (inactive)
- GI50 (MDA-N): 30.9 µM (inactive)
- GI50 (ACHN): 35.7 µM (inactive)
- GI50 (M14): 24.8 µM (inactive)
- GI50 (OVCAR-8): 41.8 µM (inactive)
- GI50 (SNB-19): 39.3 µM (inactive)
- GI50 (U-251): 35.9 µM (inactive)
- GI50 (K562): 30.5 µM (inactive)
- GI50 (NCI-H23): 30.5 µM (inactive)
- GI50 (SF-268): 64.9 µM (inactive)
- GI50 (HOP-92): 28.1 µM (inactive)
- GI50 (IGROV-1): 44.8 µM (inactive)
- GI50 (EKVX): 41.1 µM (inactive)
- GI50 (Malme-3M): 39.1 µM (inactive)

— ChEMBL document CHEMBL1201862, “PubChem BioAssay data set” (2004)
